ChEMBL document CHEMBL2074496, “Altered drug disposition of the platelet activating factor antagonist apafant in mdr1a knockout mice” (Eur J Pharm Sci, 2002)

Legend:
[1] = target: ATP-dependent translocase ABCB1 (Mus musculus, UniProt P21447); test: TP_TRANSPORTER: increase in brain concentration in mdr1a(-/-) mouse; assay type: functional, organism-based; settings: in vivo
[2] = target: ATP-dependent translocase ABCB1 (Homo sapiens, UniProt P08183); test: TP_TRANSPORTER: transepithelial transport (basal to apical) in Caco-2 cells; assay type: functional, cell-based
Chain of ATP-dependent translocase ABCB1 (Homo sapiens, UniProt P08183) (P08183 whole entry): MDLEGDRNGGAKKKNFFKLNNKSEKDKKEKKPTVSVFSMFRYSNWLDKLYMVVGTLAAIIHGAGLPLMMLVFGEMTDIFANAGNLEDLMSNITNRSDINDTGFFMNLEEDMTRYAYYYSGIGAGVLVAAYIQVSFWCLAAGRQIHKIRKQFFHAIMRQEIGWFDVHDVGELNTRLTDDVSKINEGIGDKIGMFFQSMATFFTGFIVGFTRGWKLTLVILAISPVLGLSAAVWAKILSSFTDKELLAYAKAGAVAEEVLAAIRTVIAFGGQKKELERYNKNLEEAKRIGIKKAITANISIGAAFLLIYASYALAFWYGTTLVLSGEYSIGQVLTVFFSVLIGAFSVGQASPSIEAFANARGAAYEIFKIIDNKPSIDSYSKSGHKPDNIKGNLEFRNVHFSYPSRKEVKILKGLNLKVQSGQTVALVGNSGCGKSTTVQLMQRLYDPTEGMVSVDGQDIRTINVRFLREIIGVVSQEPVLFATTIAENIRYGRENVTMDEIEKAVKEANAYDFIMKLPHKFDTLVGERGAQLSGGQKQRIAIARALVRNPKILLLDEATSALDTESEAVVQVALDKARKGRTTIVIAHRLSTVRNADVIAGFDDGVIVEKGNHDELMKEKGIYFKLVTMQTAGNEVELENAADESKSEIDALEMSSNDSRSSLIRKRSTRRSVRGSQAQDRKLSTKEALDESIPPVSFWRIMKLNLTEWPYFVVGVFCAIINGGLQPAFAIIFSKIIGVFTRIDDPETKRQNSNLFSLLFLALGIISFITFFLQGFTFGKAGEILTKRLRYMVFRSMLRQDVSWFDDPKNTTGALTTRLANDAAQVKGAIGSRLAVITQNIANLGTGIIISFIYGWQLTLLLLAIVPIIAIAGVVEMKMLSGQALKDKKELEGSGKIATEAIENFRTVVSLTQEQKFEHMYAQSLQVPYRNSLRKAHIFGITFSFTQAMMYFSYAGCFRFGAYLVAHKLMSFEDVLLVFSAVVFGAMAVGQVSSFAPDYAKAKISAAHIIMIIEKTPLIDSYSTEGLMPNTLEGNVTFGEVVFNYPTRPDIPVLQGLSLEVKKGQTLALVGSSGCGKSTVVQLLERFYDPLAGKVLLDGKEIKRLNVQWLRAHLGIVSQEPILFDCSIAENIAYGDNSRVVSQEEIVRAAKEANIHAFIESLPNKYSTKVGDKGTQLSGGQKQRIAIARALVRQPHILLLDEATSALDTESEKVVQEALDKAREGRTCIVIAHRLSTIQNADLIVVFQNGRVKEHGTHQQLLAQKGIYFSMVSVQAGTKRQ

Chain of ATP-dependent translocase ABCB1 (Mus musculus, UniProt P21447) (P21447 whole entry): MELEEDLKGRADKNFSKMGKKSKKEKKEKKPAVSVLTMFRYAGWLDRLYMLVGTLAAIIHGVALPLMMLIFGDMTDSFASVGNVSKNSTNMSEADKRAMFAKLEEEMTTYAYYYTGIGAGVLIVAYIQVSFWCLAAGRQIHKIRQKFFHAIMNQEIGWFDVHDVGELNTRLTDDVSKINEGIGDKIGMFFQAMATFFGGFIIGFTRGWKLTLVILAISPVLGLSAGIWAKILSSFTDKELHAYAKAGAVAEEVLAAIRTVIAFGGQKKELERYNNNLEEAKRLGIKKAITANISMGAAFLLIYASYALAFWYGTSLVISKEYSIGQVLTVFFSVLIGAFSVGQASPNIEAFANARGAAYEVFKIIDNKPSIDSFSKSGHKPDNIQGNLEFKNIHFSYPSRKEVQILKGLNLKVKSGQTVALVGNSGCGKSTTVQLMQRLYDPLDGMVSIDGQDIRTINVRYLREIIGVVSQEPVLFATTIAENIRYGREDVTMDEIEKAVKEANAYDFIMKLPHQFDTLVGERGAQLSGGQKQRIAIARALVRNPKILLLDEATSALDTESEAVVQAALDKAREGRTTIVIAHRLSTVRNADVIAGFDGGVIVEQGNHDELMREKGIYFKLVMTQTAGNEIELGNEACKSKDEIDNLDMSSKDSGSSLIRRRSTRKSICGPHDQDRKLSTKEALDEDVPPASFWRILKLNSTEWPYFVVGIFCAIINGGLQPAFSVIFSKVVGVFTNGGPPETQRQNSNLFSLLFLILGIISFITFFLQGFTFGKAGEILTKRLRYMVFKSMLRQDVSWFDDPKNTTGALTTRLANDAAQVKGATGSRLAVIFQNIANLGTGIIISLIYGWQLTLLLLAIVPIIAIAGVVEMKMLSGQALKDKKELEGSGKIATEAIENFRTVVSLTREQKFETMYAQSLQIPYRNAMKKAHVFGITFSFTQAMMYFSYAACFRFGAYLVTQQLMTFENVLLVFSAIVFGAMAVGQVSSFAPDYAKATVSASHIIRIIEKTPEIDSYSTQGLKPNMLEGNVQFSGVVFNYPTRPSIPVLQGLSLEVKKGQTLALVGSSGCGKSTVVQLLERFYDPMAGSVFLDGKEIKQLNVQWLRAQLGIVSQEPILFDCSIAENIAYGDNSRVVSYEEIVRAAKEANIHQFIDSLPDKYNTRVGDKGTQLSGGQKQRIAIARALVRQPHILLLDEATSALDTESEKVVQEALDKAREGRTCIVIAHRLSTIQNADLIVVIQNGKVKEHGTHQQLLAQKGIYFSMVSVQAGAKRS

Compound: Cc1nnc2n1-c1sc(CCC(=O)N3CCOCC3)cc1C(c1ccccc1Cl)=NC2 [APAFANT]
- Activity [1]: substrate [+]
- Activity [2]: substrate [+]
